Measured values taken from patent US20030229066A1, “Novel heterocyclic urea derivatives and their use as dopamine D3 receptor ligands” (priority 2001, published 2003).
Read-outs that look alike come from different tables or passages of the source.

Target: T1, cloned human dopamine D3 receptors (Homo sapiens, UniProt P35462)
T1 construct: expressed in transfected cells
Test: [N-Methyl-3H]Spiroperidol binding to cloned human dopamine D3 receptors
Text: [N-Methyl-^3H]Spiroperidol Binding to Cloned Human Dopamine D3 Receptors
This assay measures the in vitro activity of compounds on cloned human dopamine (D3) receptors and predicts the direct dopamine-blocking properties of putative neuropsychiatric agents at human dopamine D3 receptors.
The D3 gene was isolated from a human striatal cDNA library (Stratagene). The gene was sequenced and sub-cloned into the expression vector RC/RSV (Invitrogen). CHO (Chinese Hamster Ovary) cells were stably transfected with 10 μg of the D3/RSV plasmid using the DOTAP method from Boehringer Mannheim and 72 clones that were G418 resistant were isolated. Using mRNA and binding displacement data a single high expressing clone was identified. This clone was then grown in large batches for the purpose of developing a 96 well format assay.
The cells are harvested into 250 ml centrifuge tubes with 100 volumes of cold phosphate buffered saline (PBS) and spun down (1200×G for 10 min at 4° C.). The medium is removed and 100 ml PBS are added to each centrifuge tube, cells are resuspened and spun down again. The PBS is removed and the final pellet is homogenized in an appropriate volume of 10% DMSO with a polytron on ice at a medium setting.
For Kj determinations: [^3H]NMSP is made up to a concentration of 2.7 nM in buffer 2b, such that when 150 μl is added to each tube a final concentration of 0.4 nM is attained in the 1 ml assay. Samples of total CPM added are taken for each experiment to calculate the total ligand concentration.
5. S(-)-Eticlopride is obtained from Research Biochemicals International (RBI catalog number E-101). A refrigerated stock (good for up to a month) solution of S(-)-eticlopride is made at a concentration of 30 μM in buffer 2b. One hundred microliters are added to 3 wells for the determination of nonspecific binding (this yields a final concentration of 3 μM in the 1 ml assay).
For most assays, a 100 μM stock solution of the test compound is made up in a suitable solvent (usually <0.1% acetic acid) and serially diluted with buffer 2b, such that when 100 μl of drug is combined with the total 1 ml assay, final concentrations ranging from 10^−5-10^−8 M are attained. Characteristically eight concentrations are studied for each assay; however, higher or lower concentrations may be used, depending on the potency of the drug.
The 96-Well Packard Unifilters GF/B are incubated for >1 h at 25° C. in 0.1% polyethylamine (from 3,b). The cold tissue is added last and mixed on a orbital shaker for a few seconds and is then incubated at 37° C. for 30 min in a shaking water bath. The assay is stopped by rapid filtration through Packard Unifilter plates. The filter membranes are then washed with 15 ml of ice-cold 0.05 M Tris buffer. The filters are then dried (˜15 min under a heat lamp or incubated for 15 min in a 60° C. oven) and a bottom seal is applied. Then 40 μl of Packard Microscint 20 scintillation cocktail is added and a permanent topseal (Type P) is applied and heat sealed. The plates are then shaken on an orbital shaker for 1 h and placed in the Packard Topcount and counted for at least 5 minutes for each point.
Specific binding is defined as the difference between total binding and the binding in the presence of 3 μM S-(-)-eticlopride. Total binding is approximately 10% of the total added ligand. Cheng-Prusoff determination (Kj's) are performed using Prism software using a one-site competition curve analysis where the top and the bottom of the non-linear regression are held constant at 0% and 100% percent inhibition. The percent inhibition at each drug concentration is the mean of duplicate determinations.

T1 sequence (P35462 whole entry): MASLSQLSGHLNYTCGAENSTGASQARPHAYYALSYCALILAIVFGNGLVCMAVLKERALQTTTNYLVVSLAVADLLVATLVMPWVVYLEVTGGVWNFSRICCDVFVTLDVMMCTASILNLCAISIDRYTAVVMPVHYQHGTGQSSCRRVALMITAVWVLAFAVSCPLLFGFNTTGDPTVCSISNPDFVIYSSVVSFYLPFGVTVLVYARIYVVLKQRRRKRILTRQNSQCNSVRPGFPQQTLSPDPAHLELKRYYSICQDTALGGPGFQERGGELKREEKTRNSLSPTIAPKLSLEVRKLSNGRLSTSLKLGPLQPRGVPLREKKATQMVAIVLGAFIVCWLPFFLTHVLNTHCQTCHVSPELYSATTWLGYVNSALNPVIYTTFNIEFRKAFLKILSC

Row | Ki | Ki (Table III, read-out: d3Ki) | Compound
1 | 2.97 nM | – | C=CCN(CC1CC1CN1CCCN(c2csc3cc(F)ccc23)CC1)C(=O)Nc1ccc(OC)cc1 (racemic) [compound 830389]
2 | 41.3 nM | – | O=C(Nc1ccc(OC(F)(F)F)cc1)N(Cc1ccccc1)CC1CC1CN1CCCN(c2csc3cc(F)ccc23)CC1 (racemic) [compound 830400]
3 | 29.7 nM | – | O=C(Nc1ccc(Cl)c(Cl)c1)N(Cc1ccccc1)CC1CC1CN1CCCN(c2csc3cc(F)ccc23)CC1 (racemic) [compound 830401]
4 | 3.43 nM | – | COc1ccc(NC(=O)NCC2CC2CN2CCCN(c3csc4cc(F)ccc34)CC2)cc1 (racemic) [compound 830408]
5 | 47.4 nM | – | O=C(NCC1CC1CN1CCCN(c2csc3cc(F)ccc23)CC1)Nc1ccc(Cl)c(Cl)c1 (racemic) [compound 830409]
6 | 43.6 nM | – | CC(C)(C)NC(=O)NCC1CC1CN1CCC(c2noc3ccsc23)CC1 (racemic) [compound 831498]
7 | 159 nM | – | O=C(NCCc1ccccc1)NCC1CC1CN1CCC(c2noc3ccsc23)CC1 (racemic) [compound 831670]
8 | – | 5.94 nM | COc1ccc(NC(=O)NCCCCN2CCN(c3csc4cc(C(F)(F)F)ccc34)CC2)cc1 [815994A]
9 | – | 4.08 nM | Cc1ccc(NC(=O)NCCCCN2CCN(c3csc4cc(C(F)(F)F)ccc34)CC2)cc1 [815997A]
10 | – | 7.4 nM | CC(=O)c1ccc(NC(=O)NCCCCN2CCN(c3c(Cl)sc4cc(F)ccc34)CC2)cc1 [compound 815158]
11 | – | 85.4 nM | O=C(NCCCCN1CCN(c2c(Cl)sc3cc(F)ccc23)CC1)Nc1ccc(Oc2ccccc2)cc1 [compound 815159]
12 | – | 192 nM | O=C(NCCCCN1CCN(c2c(Cl)sc3cc(F)ccc23)CC1)Nc1ccc(-c2ccccc2)cc1 [compound 815160]
13 | – | 75.9 nM | O=C(NCCCCN1CCN(c2c(Cl)sc3cc(F)ccc23)CC1)Nc1ccc(OCc2ccccc2)cc1 [compound 815161]
14 | – | 38 nM | O=C(NCCCCN1CCN(c2c(Cl)sc3cc(F)ccc23)CC1)Nc1ccc(C(F)(F)F)cc1 [compound 815162]
15 | – | 25.2 nM | O=C(NCCCCN1CCN(c2c(Cl)sc3cc(F)ccc23)CC1)Nc1cccc(F)c1 [compound 815163]
16 | – | 31.9 nM | O=C(NCCCCN1CCN(c2c(Cl)sc3cc(F)ccc23)CC1)Nc1ccc(F)cc1 [compound 815164]
17 | – | 21.4 nM | COc1ccc(NC(=O)NCCCCN2CCN(c3c(Cl)sc4cc(F)ccc34)CC2)cc1 [compound 815165]
18 | – | 37 nM | CCCCOc1ccc(NC(=O)NCCCCN2CCN(c3c(Cl)sc4cc(F)ccc34)CC2)cc1 [compound 815166]
19 | – | 48 nM | CC(C)c1ccc(NC(=O)NCCCCN2CCN(c3c(Cl)sc4cc(F)ccc34)CC2)cc1 [compound 815167]
20 | – | 33.4 nM | O=C(NCCCCN1CCN(c2c(Cl)sc3cc(F)ccc23)CC1)Nc1ccc(I)cc1 [compound 815168]

Row | Ki | Ki (Table III, read-out: d3Ki) | Compound
21 | – | 11.2 nM | O=C(NCCCCN1CCN(c2c(Cl)sc3cc(F)ccc23)CC1)Nc1ccccc1Cl [compound 815169]
22 | – | 17.7 nM | CCCCc1ccc(NC(=O)NCCCCN2CCN(c3c(Cl)sc4cc(F)ccc34)CC2)cc1 [compound 815170]
23 | – | 3.8 nM | Cc1ccc(NC(=O)NCCCCN2CCN(c3c(Cl)sc4cc(F)ccc34)CC2)cc1 [compound 815171]
24 | – | 5.6 nM | O=C(NCCCCN1CCN(c2c(Cl)sc3cc(F)ccc23)CC1)Nc1ccc(Cl)cc1 [compound 815172]
25 | – | 46.5 nM | O=C(NCCCCN1CCN(c2c(Cl)sc3cc(F)ccc23)CC1)Nc1ccccc1C(F)(F)F [compound 815173]
26 | – | 6 nM | O=C(NCCCCN1CCN(c2c(Cl)sc3cc(F)ccc23)CC1)Nc1ccc(Br)cc1 [compound 815174]
27 | – | 11.8 nM | O=C(NCCCCN1CCN(c2c(Cl)sc3cc(F)ccc23)CC1)Nc1cccc2ccccc12 [compound 815175]
28 | – | 18 nM | O=C(NCCCCN1CCN(c2c(Cl)sc3cc(F)ccc23)CC1)NCc1ccccc1 [compound 815177]
29 | – | 190 nM | S=C(NCCCCN1CCC(c2noc3ccsc23)CC1)Nc1ccccc1 [compound 815383]
30 | – | 18 nM | O=C(NCCCCN1CCC(c2noc3ccsc23)CC1)Nc1ccc(Br)cc1 [compound 815386]
31 | – | 28 nM | O=C(NCCCCN1CCC(c2noc3ccsc23)CC1)Nc1ccc(-c2ccccc2)cc1 [compound 815387]
32 | – | 30 nM | O=C(NCCCCN1CCC(c2noc3ccsc23)CC1)NC1CCCCC1 [compound 815389]
33 | – | 52 nM | O=C(NCCCCN1CCC(c2noc3ccsc23)CC1)Nc1cccc2ccccc12 [compound 815390]
34 | – | 16 nM | O=C(NCCCCN1CCC(c2noc3ccsc23)CC1)Nc1ccc(Oc2ccccc2)cc1 [compound 815391]
35 | – | 24 nM | O=C(NCCCCN1CCC(c2noc3ccsc23)CC1)NC12CC3CC(CC(C3)C1)C2 [compound 815392]
36 | – | 4.19 nM | CCc1cccc(NC(=O)NCCCCN2CCC(c3noc4ccsc34)CC2)c1 [compound 815934]
37 | – | 53.8 nM | O=C(NCCCCN1CCC(c2noc3ccsc23)CC1)Nc1ccc(OC(F)(F)F)cc1 [compound 815935]
38 | – | 3.91 nM | O=C(NCCCCN1CCC(c2noc3ccsc23)CC1)Nc1cc(C(F)(F)F)ccc1Cl [compound 815936]
39 | – | 66.3 nM | CC(NC(=O)NCCCCN1CCC(c2noc3ccsc23)CC1)c1ccc(Br)cc1 (stereo not shown) [compound 815937]
40 | – | 19.1 nM | O=C(NCCCCN1CCC(c2noc3ccsc23)CC1)Nc1ccccc1Br [compound 815939]

Row | Ki | Ki (Table III, read-out: d3Ki) | Compound
41 | – | 140 nM | CCNC(=O)NCCCCN1CCC(c2noc3ccsc23)CC1 [compound 815940]
42 | – | 128 nM | CCOC(=O)c1ccccc1NC(=O)NCCCCN1CCC(c2noc3ccsc23)CC1 [compound 815941]
43 | – | 41.7 nM | CCOC(=O)C(CC(C)C)NC(=O)NCCCCN1CCC(c2noc3ccsc23)CC1 (stereo not shown) [compound 815942]
44 | – | 198 nM | CCOC(=O)CCNC(=O)NCCCCN1CCC(c2noc3ccsc23)CC1 [compound 815943]
45 | – | 297 nM | COC(=O)C(Cc1ccccc1)NC(=O)NCCCCN1CCC(c2noc3ccsc23)CC1 (stereo not shown) [compound 815944]
46 | – | 116 nM | O=C(NCCCCN1CCC(c2noc3ccsc23)CC1)NCc1cc(=O)oc2cc3c(cc12)OCO3 [compound 815945]
47 | – | 28.3 nM | CCCCCCCCNC(=O)NCCCCN1CCC(c2noc3ccsc23)CC1 [compound 815946]
48 | – | 26 nM | COc1c(Cl)cccc1NC(=O)NCCCCN1CCC(c2noc3ccsc23)CC1 [compound 815947]
49 | – | 6.04 nM | O=C(NCCCCN1CCC(c2noc3ccsc23)CC1)Nc1ccccc1F [compound 815948]
50 | – | 13.6 nM | O=C(NCCCCN1CCC(c2noc3ccsc23)CC1)Nc1ccccc1Cl [compound 815949]
51 | – | 27 nM | CC(C)c1ccccc1NC(=O)NCCCCN1CCC(c2noc3ccsc23)CC1 [compound 815952]
52 | – | 67.9 nM | C=C(C)c1cccc(C(C)(C)NC(=O)NCCCCN2CCC(c3noc4ccsc34)CC2)c1 [compound 815953]
53 | – | 14.9 nM | CCOC(=O)c1ccc(NC(=O)NCCCCN2CCC(c3noc4ccsc34)CC2)cc1 [compound 815954]
54 | – | 5.85 nM | O=C(NCCCCN1CCN(c2csc3cc(C(F)(F)F)ccc23)CC1)Nc1cccc2ccccc12 [compound 815996]
55 | – | 22.5 nM | O=C(NCCCCN1CCN(c2csc3cc(C(F)(F)F)ccc23)CC1)NCc1ccccc1 [compound 815998]
56 | – | 19 nM | COc1ccccc1NC(=O)NCCCCN1CCN(c2csc3cc(C(F)(F)F)ccc23)CC1 [compound 815999]
57 | – | 6.11 nM | O=C(NCCCCN1CCN(c2csc3cc(C(F)(F)F)ccc23)CC1)Nc1ccc(F)cc1 [compound 816004]
58 | – | 7.42 nM | O=C(NCCCCN1CCN(c2csc3cc(C(F)(F)F)ccc23)CC1)Nc1ccc(F)cc1F [compound 816006]
59 | – | 17.5 nM | Cc1ccccc1NC(=O)NCCCCN1CCN(c2csc3cc(C(F)(F)F)ccc23)CC1 [compound 816007]
60 | – | 17 nM | COc1ccc(NC(=O)NCCCCN2CCN(c3csc4cc(C(F)(F)F)ccc34)CC2)c(OC)c1 [compound 816008]

Row | Compound | Ki | Ki (Table III, read-out: d3Ki)
61 | CCO[Si](CCCNC(=O)NCCCCN1CCC(c2noc3ccsc23)CC1)(OCC)OCC [compound 815938] | – | 153 nM
